Laboratory results as given in patent publication US20230026696A1, “TRPV4 RECEPTOR LIGANDS” (UNIVERSITY OF UTAH RESEARCH FOUNDATION, priority 2019, published 2023).
Counter-ions that a name gives are not always drawn.

The compounds below were run against T1, human TRPV4 (Homo sapiens, UniProt Q9HBA0) (assay: Fluorometric cell-based Ca2+ flux assay, HEK-293 cells stably overexpressing human TRPV4). Details: HEK-293 stably overexpressing human TRPV4; agonist GSK1016790A 30 nM.
T1 construct: expressed in transfected cells
Method in brief: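 HEK-293 cells stably overexpressing human TRPV4, Fluo 4-loaded, pre-incubated 30 min at 37° C with compound, then stimulated with 30 nM GSK1016790A (final). Max ΔF/s over 1 min, media-corrected, expressed relative to no-antagonist control; IC50 from ≥8 concentrations, ≥3 replicates.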

T1 sequence (Q9HBA0 whole entry): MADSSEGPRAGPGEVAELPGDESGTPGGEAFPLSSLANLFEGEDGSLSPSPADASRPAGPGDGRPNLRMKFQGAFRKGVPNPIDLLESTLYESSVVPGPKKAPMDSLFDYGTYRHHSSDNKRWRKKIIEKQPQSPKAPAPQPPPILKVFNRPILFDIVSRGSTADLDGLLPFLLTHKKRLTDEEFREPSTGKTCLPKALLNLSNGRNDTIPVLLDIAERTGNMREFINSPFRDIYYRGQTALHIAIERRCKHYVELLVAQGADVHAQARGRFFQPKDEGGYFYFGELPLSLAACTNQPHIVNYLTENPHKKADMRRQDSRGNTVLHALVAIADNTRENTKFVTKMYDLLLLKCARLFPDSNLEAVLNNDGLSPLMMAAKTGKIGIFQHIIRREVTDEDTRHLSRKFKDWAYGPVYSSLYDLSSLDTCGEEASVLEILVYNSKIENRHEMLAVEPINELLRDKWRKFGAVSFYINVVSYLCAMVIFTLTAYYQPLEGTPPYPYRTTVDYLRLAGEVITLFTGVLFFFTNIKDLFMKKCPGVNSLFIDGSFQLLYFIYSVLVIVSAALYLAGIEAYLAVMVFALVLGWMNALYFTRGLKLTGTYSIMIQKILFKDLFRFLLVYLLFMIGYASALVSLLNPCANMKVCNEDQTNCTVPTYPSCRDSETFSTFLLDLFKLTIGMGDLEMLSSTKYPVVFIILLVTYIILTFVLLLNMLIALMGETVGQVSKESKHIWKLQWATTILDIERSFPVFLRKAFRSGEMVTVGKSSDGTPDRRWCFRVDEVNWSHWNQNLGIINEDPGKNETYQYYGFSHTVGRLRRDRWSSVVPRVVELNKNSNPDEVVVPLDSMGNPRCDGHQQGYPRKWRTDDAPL

| SMILES | IC50 [µM] |
| --- | --- |
| N#Cc1ccc(OCC2(CNCC(O)CO)CN(S(=O)(=O)c3ccccc3C#N)C2)cc1F (stereo not shown) [Compound 115, 4-((1-((2-Cyanophenyl)sulfonyl)-3-(((2,3-dihydroxypropyl)amino)methyl)azetidin-3-yl)methoxy)-2-fluorobenzonitrile] | 0.00198 |
| N#Cc1ccc(OCC2(CO)CN(S(=O)(=O)c3ccc(OC(F)(F)F)cc3Br)C2)cc1F [Compound 105, 4-((1-((2-Bromo-4-(trifluoromethoxy)phenyl)sulfonyl)-3-(hydroxymethyl)azetidin-3-yl)methoxy)-2-fluorobenzonitrile] | 1.2 |
| CNC(=O)C1(COc2ccc(C#N)cc2)CN(S(=O)(=O)c2ccc(Cl)cc2Cl)C1 [Compound 4, 3-((4-Cyanophenoxy)methyl)-1-((2,4-dichlorophenyl)sulfonyl)-N-methylazetidine-3-carboxamide] | 4.6 |
| CCOC(=O)C1(COc2ccc(C#N)c(F)c2)CN(S(=O)(=O)c2ccc(Cl)cc2Cl)C1 [Compound 7, Ethyl 3-((4-cyano-3-fluorophenoxy)methyl)-1-((2,4-dichlorophenyl)sulfonyl)azetidine-3-carboxylate] | 5 |
| O=S(=O)(c1ccc(Cl)cc1Cl)N1CC(CO)(COc2ccncc2)C1 [Compound 91, (1-((2,4-Dichlorophenyl)sulfonyl)-3-((pyridin-4-yloxy)methyl)azetidin-3-yl)methanol] | ~5 |
| CCOc1cc(OCC2(COC(=O)c3ccc(Br)cc3)CN(S(=O)(=O)c3ccc(Cl)cc3Cl)C2)ccc1C#N [Compound 99, (3-((4-Cyano-3-ethoxyphenoxy)methyl)-1-((2,4-dichlorophenyl)sulfonyl)azetidin-3-yl)methyl 4-bromobenzoate] | > 1 |
| Cc1cc(Cl)ccc1S(=O)(=O)N1CC(CO)(COc2ccc(C#N)c(F)c2)C1 [Compound 74, 4-((1-((4-Chloro-2-methylphenyl)sulfonyl)-3-(hydroxymethyl)azetidin-3-yl)methoxy)-2-fluorobenzonitrile] | 0.52 |
| CC(C)(C)OC(=O)NC1(COc2ccc(C#N)c(F)c2)CN(S(=O)(=O)c2ccc(Cl)cc2Cl)C1 [Compound 51, tert-Butyl (3-((4-cyano-3-fluorophenoxy)methyl)-1-((2,4-dichlorophenyl)sulfonyl)azetidin-3-yl)carbamate] | 3.35 |
| N#Cc1ccc(OCC2(COP(=O)(O)O)CN(S(=O)(=O)c3ccc(Cl)cc3Cl)C2)cc1F [Compound 14, Sodium (3-((4-cyano-3-fluorophenoxy)methyl)-1-((2,4-dichlorophenyl)sulfonyl)azetidin-3-yl)methyl phosphate] | 0.07 |
| N#Cc1ccc(OCC2(CO)CN(S(=O)(=O)c3ccc(C(F)(F)F)nc3)C2)cc1F [Compound 64, 2-Fluoro-4-((3-(hydroxymethyl)-1-((6-(trifluoromethyl)pyridin-3-yl)sulfonyl)azetidin-3-yl)methoxy)benzonitrile] | 5 |
| Cc1cc(F)ccc1S(=O)(=O)N1CC(CO)(COc2ccc(C#N)c(F)c2)C1 [Compound 77, 2-Fluoro-4-((1-((4-fluoro-2-methylphenyl)sulfonyl)-3-(hydroxymethyl)azetidin-3-yl)methoxy)benzonitrile] | > 2.5 |
| O=S(=O)(c1ccc(Cl)cc1Cl)N1CC(CO)(COc2cccnc2)C1 [Compound 97, (1-((2,4-Dichlorophenyl)sulfonyl)-3-((pyridin-3-yloxy)methyl)azetidin-3-yl)methanol] | ~5 |
| COc1cc(C#N)ccc1OCC1(CO)CN(S(=O)(=O)c2ccc(Cl)cc2Cl)C1 [Compound 98, 4-((1-((2,4-Dichlorophenyl)sulfonyl)-3-(hydroxymethyl)azetidin-3-yl)methoxy)-3-methoxybenzonitrile] | 0.0672 |
| Cc1cc(C#N)ccc1S(=O)(=O)N1CC(CO)(COc2ccc(C#N)c(F)c2)C1 [Compound 79, 4-((1-((4-Cyano-2-methylphenyl)sulfonyl)-3-(hydroxymethyl)azetidin-3-yl)methoxy)-2-fluorobenzonitrile] | > 1.3 |
| N#Cc1ccc(OCC2(NC(=O)CO)CN(S(=O)(=O)c3ccc(Cl)cc3Cl)C2)cc1F [Compound 56, N-(3-((4-Cyano-3-fluorophenoxy)methyl)-1-((2,4-dichlorophenyl)sulfonyl)azetidin-3-yl)-2-hydroxyacetamide] | 0.1 |
| N#Cc1ccc(NCC2(CO)CN(S(=O)(=O)c3ccc(Cl)cc3Cl)C2)cc1F [Compound 101, 4-(((1-((2,4-dichlorophenyl)sulfonyl)-3-(hydroxymethyl)azetidin-3-yl)methyl)amino)-2-fluorobenzonitrile] | 0.136 |
| Cc1ccc(S(=O)(=O)N2CC(CO)(COc3ccc(C#N)c(F)c3)C2)c(C#N)c1 [Compound 103, 4-((1-((2-Cyano-4-methylphenyl)sulfonyl)-3-(hydroxymethyl)azetidin-3-yl)methoxy)-2-fluorobenzonitrile] | 0.0147 |
| O=S(=O)(c1ccc(Cl)cc1Cl)N1CC(CO)(COc2ccnc(Cl)c2)C1 [Compound 94, (3-(((2-Chloropyridin-4-yl)oxy)methyl)-1-((2,4-dichlorophenyl)sulfonyl)azetidin-3-yl)methanol] | ~3 |
| N#Cc1ccc(OCC2(CN3CCOCC3)CN(S(=O)(=O)c3ccc(Cl)cc3Cl)C2)cc1F [Compound 50, 4-((1-((2,4-Dichlorophenyl)sulfonyl)-3-(morpholinomethyl)azetidin-3-yl)methoxy)-2-fluorobenzonitrile hydrochloride] | 0.794 |
| N#Cc1ccc(OCC2(CO)CN(S(=O)(=O)c3ccc(Cl)cc3Cl)C2)cc1 [Compound 3, 4-((1-((2,4-Dichlorophenyl)sulfonyl)-3-(hydroxymethyl)azetidin-3-yl)methoxy)benzonitrile] | 0.27 |
| CC(=O)NC1(COc2ccc(C#N)c(F)c2)CN(S(=O)(=O)c2ccc(Cl)cc2Cl)C1 [Compound 53, N-(3-((4-Cyano-3-fluorophenoxy)methyl)-1-((2,4-dichlorophenyl)sulfonyl)azetidin-3-yl)acetamide] | 0.088 |

Further lines, results first:

| IC50 [µM] | SMILES |
| --- | --- |
| 0.0018 | N#Cc1ccc(OCC2(CN[C@H]3C[C@@H](O)C3)CN(S(=O)(=O)c3ccc(Cl)cc3Cl)C2)cc1F [Compound 38, 4-((1-((2,4-Dichlorophenyl)sulfonyl)-3-((((cis)-3-hydroxycyclobutyl)amino)methyl)azetidin-3-yl)methoxy)-2-fluorobenzonitrile hydrochloride] |
| 1.09 | N#Cc1ccc(OCC2(C(N)=O)CN(S(=O)(=O)c3ccc(Cl)cc3Cl)C2)cc1F [Compound 9, 3-((4-Cyano-3-fluorophenoxy)methyl)-1-((2,4-dichlorophenyl)sulfonyl)azetidine-3-carboxamide] |
| 0.0003 | CC(CO)NCC1(COc2ccc(C#N)c(F)c2)CN(S(=O)(=O)c2ccc(Cl)cc2Cl)C1 (stereo not shown) [Compound 32, 4-((1-((2,4-Dichlorophenyl)sulfonyl)-3-(((1-hydroxypropan-2-yl)amino)methyl)azetidin-3-yl)methoxy)-2-fluorobenzonitrile hydrochloride] |
| 0.062 | COCC1(COc2ccc(C#N)c(F)c2)CN(S(=O)(=O)c2ccc(Cl)cc2Cl)C1 [Compound 13, 4-((1-((2,4-Dichlorophenyl)sulfonyl)-3-(methoxymethyl)azetidin-3-yl)methoxy)-fluorobenzonitrile] |
| 0.11 | N#Cc1ccc(OCC2(CNS(=O)(=O)CCN)CN(S(=O)(=O)c3ccc(Cl)cc3Cl)C2)cc1F [Compound 49, 2-Amino-N-((3-((4-cyano-3-fluorophenoxy)methyl)-1-((2,4-dichlorophenyl)sulfonyl)azetidin-3-yl)methyl)ethane-1-sulfonamide] |
| 0.0003 | N#Cc1ccc(OCC2(CNCC(O)CO)CN(S(=O)(=O)c3ccc(Cl)cc3Cl)C2)cc1F (stereo not shown) [Compound 33, 4-((1-((2,4-Dichlorophenyl)sulfonyl)-3-(((2,3-dihydroxypropyl)amino)methyl)azetidin-3-yl)methoxy)-2-fluorobenzonitrile hydrochloride] |
| 0.252 | CNCC(=O)NCC1(COc2ccc(C#N)c(F)c2)CN(S(=O)(=O)c2ccc(Cl)cc2Cl)C1 [Compound 48, N-((3-((4-Cyano-3-fluorophenoxy)methyl)-1-((2,4-dichlorophenyl)sulfonyl)azetidin-3-yl)methyl)-2-(methylamino)acetamide] |
| 0.153 | N#Cc1ccc(OCC2(CNCC(N)=O)CN(S(=O)(=O)c3ccc(Cl)cc3Cl)C2)cc1F [Compound 20, 2-(((3-((4-Cyano-3-fluorophenoxy)methyl)-1-((2,4-dichlorophenyl)sulfonyl)azetidin-3-yl)methyl)amino)acetamide hydrochloride] |
| 0.0009 | CC(O)CNCC1(COc2ccc(C#N)c(F)c2)CN(S(=O)(=O)c2ccc(Cl)cc2Cl)C1 (stereo not shown) [Compound 24, 4-((1-((2,4-Dichlorophenyl)sulfonyl)-3-(((2-hydroxypropyl)amino)methyl)azetidin-3-yl)methoxy)-2-fluorobenzonitrile hydrochloride] |
| 0.001 | N#Cc1ccc(OCC2(CNCC3COC3)CN(S(=O)(=O)c3ccc(Cl)cc3Cl)C2)cc1F [Compound 27, 4-((1-((2,4-Dichlorophenyl)sulfonyl)-3-(((oxetan-3-ylmethyl)amino)methyl)azetidin-3-yl)methoxy)-2-fluorobenzonitrile] |
| 3 | CC(=O)NCC1(COc2ccc(C#N)c(F)c2)CN(S(=O)(=O)c2ccc(Cl)cc2Cl)C1 [Compound 45, N-((3-((4-Cyano-3-fluorophenoxy)methyl)-1-((2,4-dichlorophenyl)sulfonyl)azetidin-3-yl)methyl)acetamide] |
| 0.303 | CC(=O)OCC1(COc2ccc(C#N)c(F)c2)CN(S(=O)(=O)c2ccc(Cl)cc2Cl)C1 [Compound 12, (3-((4-Cyano-3-fluorophenoxy)methyl)-1-((2,4-dichlorophenyl)sulfonyl)azetidin-3-yl)methyl acetate] |
| 0.0007 | CC(O)CCNCC1(COc2ccc(C#N)c(F)c2)CN(S(=O)(=O)c2ccc(Cl)cc2Cl)C1 (stereo not shown) [Compound 35, 4-((1-((2,4-dichlorophenyl)sulfonyl)-3-(((3-hydroxybutyl)amino)methyl)azetidin-3-yl)methoxy)-2-fluorobenzonitrile hydrochloride] |
